Test results: patent publication US20150133434A1, “Compositions and Methods for Reactivating Latent Immunodeficiency Virus” (priority 2012, published 2015)
“Also recorded” adds a separate entry of the source.

Test system: latent LTR-Tat-IRES-GFP construct in J-Lat A2 cells
Assay: J-Lat A2 cells (LTR-Tat-IRES-GFP), flow cytometry of GFP
Format: cell-based, HIV-1
Description: HEK293T and Jurkat cells were obtained from the American Type Culture Collection. J-Lat (clones A2 and A72) cell lines were described. HEK293T cells were cultured in DMEM supplemented with 10% FBS, 1% L-glutamine and 1% penicillin-streptomycin (Life Technologies). Jurkat and J-Lat cells were cultured in RPMI supplemented with 10% FBS, 1% L-glutamine, and 1% penicillin-streptomycin. TNFα (Sigma-Aldrich) was used at concentrations of 0.25 or 1 ng/ml. Human αCD3 and αCD28 (BD Biosciences) were used at concentrations of 3 and 1 μg/ml, respectively. Prostratin (Sigma) was used at a suboptimal concentration of 0.5 μM, and SAHA (NCI Chemical Carcinogen Repository, Midwest Research Institute) was used at 2.5 μM.
To determine if BET inhibition specifically activates Tat-dependent transcription, a J-Lat cell line was utilized that harbored a latent lentiviral construct expressing Tat with GFP from the HIV LTR (clone A2; LTR-Tat-IRES-GFP). […] Stimulation with JQ1 yielded up to ninefold more GFP-expressing cells than control-treated cells, and a 22-fold increase was observed when cells were co-treated with JQ1 and low doses of TNFα (FIG. 21A). […] Here, an up to 22-fold increase in GFP^+ cells resulted from JQ1 treatment alone and a 45-fold increase when TNFα was added with JQ1 (FIG. 21B). Both cell lines were also treated with prostratin and SAHA (FIG. 27).
Two latent J-Lat cell lines A2 (containing a LTR-Tat-IRES-GFP construct) or A72 (containing a LTR-GFP construct) were treated with JQ1 or (R)-JQ1 in combination with TNFα or control at the indicated concentrations for 18 h, followed by flow cytometry analysis. […] Data represent average (±SD) of three independent experiments. All treatments in (A) and (B) on the X axis are in μM.

Cc1sc2c(c1C)C(c1ccc(Cl)cc1)=N[C@@H](CC(=O)OC(C)(C)C)c1nnc(C)n1-2 [JQ1, tert-Butyl 2-((6S)-4-(4-chlorophenyl)-2,3,9-trimethyl-6H-thieno[3,2-f][1,2,4]triazolo[4,3-a][1,4]diazepin-6-yl)acetate]
activation of HIV transcription (GFP) (18 h): activated HIV transcription in a dose-dependent manner; also recorded: reactivated HIV-1 in a dose-dependent manner; also recorded: increased GFP expression
effect of adding SAHA to JQ1 (FIG. 27): only a very modest increase
effect of adding prostratin to JQ1 (FIG. 27): enhanced the JQ1 effect
GFP-expressing cells relative to control-treated cells (JQ1 alone): up to ninefold
increase in GFP-expressing cells (JQ1 with low doses of TNFα): 22 fold
